Here are results for 5 molecules from patent US20130039956A1, “USE OF NITROCARBOXYLIC ACIDS FOR THE TREATMENT, DIAGNOSIS AND PROPHYLAXIS OF AGGRESSIVE HEALING PATTERNS” (priority 2010, published 2013).

The test system of one experiment is fibroblasts. As to the kind of experiment: Mechanical alteration of fibroblasts (cyclic stretching of coated polypropylene meshes). Also: key: 0: not superior to native FA (control); +: Superior to native FA; ++: superior to both; +++: outstanding effect. It is filed as cell-based. The conditions noted are these: cyclic stretching, day 7, day 21, 8 weeks, compared with native FA. An excerpt:
In order to simulate the effects of chronic shear forces on a healing wound, an in vitro model was established. A flat balloon was placed on the bottom of a Petri dish. A silicone sheet was placed above and sealed with the side of the Petri dish. Then a 3 mm agar layer was casted on top of the sheet. Commercially available polypropylene meshes for hernia repair (microporous mesh, a low-weight and macroporous mesh with absorbable polyglactin filaments, and a heavy-weight and microporous mesh) were placed on the agar plates and fixed at 4 points at the side of the Petri dish. This setting enabled stretching of the meshes by filling the balloons with air, which was performed at 10-second intervals using an automated pumping device. The model can be used to evaluate the effect of three-dimensional (3D) shear forces on cell growth during cell cultivation. Preincubated suspensions of fibroblasts (1.5×10(5) cells) in a culture medium (10% FCS) were added to the culture dishes and allowed to grow for 48 hours. Cyclic stretching was started at day 3. Histological analysis was performed from the central portions of the meshes at day 7, at day 21, and after 8 weeks. The scaffolds were detached from the culture plate and carefully rinsed. Then, they were cut into pieces, casted, and further processed for standard histology and immunohistology. Care was taken to achieve a cutting plane that was vertical to the surface plane of the meshes. Histological analysis evaluated the cellularity, the content of extra cellular matrix (ECM), and the magnitude of protein synthesis. Meshes were dip-coated with native and nitro fatty acids or left blank in the same manner as in example 1. The uncoated meshes served as controls.

Experiment [1] relates to canine cutaneous mastocytoma cells. Briefly: Toxin response of mast cells (mastoparan, Streptolysin O, UVB). It is filed as cell-based. The conditions noted are these: preincubation 10 and 100 μmol, compared with native FA. The method, then:
In order to determine membrane stabilizing and anticytotoxic properties of nitrated fatty acids, an in vitro model utilizing canine cutaneous mastocytoma cells was chosen. Cells were cultured according to standard procedure. Cytotoxic effects were quantified by measuring not only by Ca^2+ influx, histamine, and TNFα release, but also by using the MTT assay. Cell suspensions were incubated with 0.9% saline, one of the nitrocarboxylic acids as listed in table 1 or the respective native fatty acid as to achieve a final concentration of 10 and 100 μmol which was given to the medium 15 min before toxin application.
Mastoparan suspended in a buffer solution was added to the preincubated mast cell suspensions to achieve a final concentration of 10 or 30 μmol, respectively. Measurements were performed after 1 hour incubation time. […] Preincubation of mast cells with nitrated fatty acids reduced the effects on Ca^2+ influx, histamine release, and apoptosis induction in a dose-dependent manner, with an almost complete absence of apoptosis at a concentration of 100 μmol.
Streptolysin O was given to preincubated suspensions to achieve a final concentration of 500 ng/ml. Measurements were performed after 2 hours. Releases of histamine and TNFα in the suspensions were measured. After saline preincubation, a significant release of histamine and TNFα was observed.
Cell plates were exposed to a single dose (250 mJ/cm2) of UVB using a lamp (Saalmann, Herford, Germany) emitting most of its energy within the UVB range (295 to 315 nm). Tryptase levels in the supernatants were determined after 30 minutes, and concentrations of TNFα after 60 minutes. After preincubation with saline, there was a marked increase of tryptase. Preincubation with native fatty acids led to a dose-dependent reduction of tryptase release, which was significant at the lower irradiation dose but not after exposure to a high irradiation dose. […] For all nitrated fatty acids that were used the results were mostly inside the same range. Relative differences can be represented as follows: […]

A further experiment deals with Cardiomyocytes. As to the kind of experiment: TGF-β1-inducible formation of extracellular matrix in cardiomyocytes under shear stress. Also: key: 0: not superior to native FA (control); +: Superior to native FA; ++: superior to both; +++: outstanding effect. The conditions noted are these: 10-100 μmol, shear stress up to 100 dyn/cm^2; compared with native FA. It is filed as cell-based. The method, then: Characterizing features of the fibrous remodelling in the heart are accentuated expression and deposition of extracellular matrix proteins (ECM). This has been attributed to increased mechanical forces via autocrine release of transforming growth factor-beta (TGF-beta). […] An established cell culture model was used to investigate the effect of shear stress on cardiomyocytes. Cardiomyocytes were cultured and transferred to a matrigel substrate. Plates with confluenced cells were placed into a shear force injury device (SFID). The SFID design is based on a cone-and-plate construction which is a well-defined rheological model in which a homogenously distributed laminar flow over the surface of the cells is generated by a rotating cone. The conical surface is positioned above a stationary flat plate and the fluid medium between these two surfaces is set in motion by rotating the cone to create a uniform level of fluid shear stress throughout the entire surface of the cells cultured on the coverslips.
A peak shear stress of 100 dyn/cm^2 could be applied without significant cell detachment enabling a maximum injury severity of 46%. Cells were exposed to FCS 1% without or with nitro-fatty acid, and the corresponding native fatty acid in a dosage range between 10 μmol and 100 μmol, 10 seconds before shear force application. Shear force peaks up to 100 dyn/cm^2 with a duration of 30 msec each with a repetition frequency of 60/minute were applied for 5, 10, 30 and 60 minutes. Thereafter the cell plates were washed and placed in FCS 1% for 24 hrs. The supernatant of the shear force investigation as well as that of the following culture phase was analysed. It could be shown that TGF-beta and ECM proteins (collagen I, fibronectin, laminin, elastin) increased after treatment in the control groups.

A further experiment relates to adult rats. Briefly: Fibrogenesis after traumatic and thermal tissue damage in dermal wound healing in vivo. Also: key: 0: not superior to native FA (control); +: Superior to native FA; ++: superior to both; +++: outstanding effect. Also noted: species or system rat. The settings on record: 100 micromol ethanolic solution on wound margins, 8 weeks, compared with native FA. An excerpt:
In order to determine the effects of nitrated fatty acids on fibrogenesis in response to traumatic and thermal tissue damage, an in vivo rat model was investigated. Paravertebral scalpel incision (two on each side) of approximately 1 cm in length and a depth of 1 mm were made in 12 anesthetized adult rats (150-200 g) of either sex after disinfection. Bleeding was stopped by manual compression. The entire length of the wound margins of one incision at each side were additionally cauterized using a 3-mm ball electrode connected to a DRE ASG-120 electrosurgical generator. Wound margins of one side were then covered with a sterile ethanolic 0.9% saline solution, or with a sterile ethanolic solution of the fatty acids (100 micromol), or with a sterile ethanolic solution of the nitrated fatty acids (100 micromol) using a sterile brush. A 1×10 mm cotton string that was bathed in the ethanolic solution containing 0.9% saline, native fatty acid or nitrated fatty acids was placed upon the incision site that had been closed by manual adaptation. The adaptation result and the cotton strings were fixed by an adhesive film. The animals were housed and fed according to institutional standards. The wound films were carefully removed after 2 weeks. Animals were euthanized after 8 weeks. The skin wounds were harvested, including the epidermis, dermis, and subcutaneous loose tissue with the surrounding normal tissue. The removed tissues were fixed in formalin and then embedded in paraffin. The cutting plane was vertical to the longitudinal axis of the former incisions. Slices (4-6 μm) were stained with H&E and Masson trichrome staining to evaluate the amount and density of collagen.

Take `CC/C=C\C/C=C\C/C(=C/C/C=C\C/C=C\CCCCCC(=O)O)[N+](=O)[O-]` [compound 7, 14-nitro-all-cis-7,10,13,16,19-docosapentaenoic acid]: the “Relative effect on fibroblasts under mechanical alteration” value (“Relative effect on fibroblasts” for short) with fibroblasts is “+”. In experiment [1], the “Relative differences: effect on toxin response of mast cells” value (“Relative differences: effect” for short) is given as “++”. Also, in the experiment with Cardiomyocytes, the “Relative efficacy to suppress TGF-beta and ECM proteins in cardiomyocytes” value (shortened to “Relative efficacy”) was “+”. Also, in the experiment with adult rats, the “Relative effect on fibrogenesis (scar formation) in dermal wound healing” value (“Relative effect on fibrogenesis” for short) is listed as 0.
With `CCCCCCCC/C=C(/CCCCCCCCCCCCCC(=O)O)[N+](=O)[O-]` [compound 8, 15-nitro-cis-15-tetracosenoic acid], the “Relative effect on fibroblasts” value in the experiment on fibroblasts is given as “+”. Further, the “Relative differences: effect” value in experiment [1] is recorded as “+”. In the experiment on Cardiomyocytes, the “Relative efficacy” value was “+”. In addition, the “Relative effect on fibrogenesis” value in the experiment with adult rats is recorded as “+”.
Consider `CCCCCCCC/C=C(\CCCCCCCC(=O)O)[N+](=O)[O-]` [compound 9, 9-nitro-trans-oleic acid], for which the “Relative effect on fibroblasts” value with fibroblasts was “+”. In addition, in experiment [1], the “Relative differences: effect” value is “++”. Moreover, the “Relative efficacy” value with Cardiomyocytes is listed as “+”. The “Relative effect on fibrogenesis” value in the experiment with adult rats is on record as “+”.
With `CCCCC=C(C=CC=CCCCCCCCC(=O)O)[N+](=O)[O-]` [compound 11, 13-nitro-octadeca-9,11,13-trienoic acid], the “Relative effect on fibroblasts” value with fibroblasts is “+”. Also, the “Relative differences: effect” value in experiment [1] was “+”. Moreover, the “Relative efficacy” value in the experiment on Cardiomyocytes is given as “+”. Besides, the “Relative effect on fibrogenesis” value with adult rats was “+”.
Regarding `CCCCCC=CCC=C(CC=CC/C=C\CCCC(=O)O)[N+](=O)[O-]` [compound 22, 11-nitro-cis-5,8,11,14-eicosatetraenoic acid], the “Relative effect on fibroblasts” value in the experiment on fibroblasts is “++”. The “Relative differences: effect” value in experiment [1] was “++”. In the experiment with Cardiomyocytes, the “Relative efficacy” value is “++”. The “Relative effect on fibrogenesis” value in the experiment with adult rats is on record as “++”.
